In BindingDB's records for doi:10.1021/jm0301787 (Roche Palo Alto, 2003) one finds IC50 data, which are given here for 1 molecule.

In the experiment the target is Mitogen-activated protein kinase 14 (Homo sapiens, UniProt Q16539). Briefly: In Vitro Kinase Assay. The note with it: pH 7.4; 30 °C. The protocol:
Inhibition of human recombinant active p38alpha MAP kinase was tested by measuring the incorporation of 33P from gamma-[33P] ATP into myelin basic protein (MBP). The assay was performed in a 96-well microtiter plate. The incorporated radioactivity was measured in a Packard Topcount microplate scintillation counter. The 50% inhibitory value was calculated by fitting the data to the equation: fractional activity = 1/[I]/IC50 + 1.

pIC50: −log10 of the molar value.

Sequence of Mitogen-activated protein kinase 14 (Q16539 whole entry): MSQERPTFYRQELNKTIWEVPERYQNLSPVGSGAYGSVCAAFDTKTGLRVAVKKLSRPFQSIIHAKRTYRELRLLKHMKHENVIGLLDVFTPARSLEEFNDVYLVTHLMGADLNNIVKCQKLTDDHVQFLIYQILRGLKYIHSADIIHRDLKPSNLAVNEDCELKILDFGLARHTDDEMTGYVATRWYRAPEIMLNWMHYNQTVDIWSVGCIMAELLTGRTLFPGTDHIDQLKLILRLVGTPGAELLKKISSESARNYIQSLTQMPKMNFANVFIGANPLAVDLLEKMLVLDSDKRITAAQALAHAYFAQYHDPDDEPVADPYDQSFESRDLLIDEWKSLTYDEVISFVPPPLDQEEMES

With `CC(CO)Nc1cc(-c2[nH]c3cccnc3c2-c2ccc(F)cc2)ccn1` (stereo unspecified) [2-({4-[3-(4-fluorophenyl)-1H-pyrrolo[3,2-b]pyridin-2-yl]pyridin-2-yl}amino)propan-1-ol], the pIC50 was 8.52.
